Reference: patent US9353090B2, “Heterocyclic carboxylic acids as activators of soluble guanylate cyclase” (Boehringer Ingelheim International GmbH, priority 2014, dated 2016)
Converted amounts (≈) assume the structure as drawn.

Columns and labels:
physchem = settings: kinetic from dmso stock
[1] = target: human soluble guanylate cyclase alpha 1 and beta 1 subunits (sGC) (Homo sapiens (Human), UniProt Q02108+Q02153); experiment: sGC cellular activator assay (cGMP, HTRF), in the presence and absence of 50% human serum; assay type: cell-based; settings: CHO cells stably expressing human sGC alpha 1/beta 1, preincubated with 40 microM ODQ; cGMP by HTRF; Table 2 does not state whether with or without 50% human serum
Sequence of human soluble guanylate cyclase alpha 1 and beta 1 subunits (sGC) (Q02108 whole entry partner): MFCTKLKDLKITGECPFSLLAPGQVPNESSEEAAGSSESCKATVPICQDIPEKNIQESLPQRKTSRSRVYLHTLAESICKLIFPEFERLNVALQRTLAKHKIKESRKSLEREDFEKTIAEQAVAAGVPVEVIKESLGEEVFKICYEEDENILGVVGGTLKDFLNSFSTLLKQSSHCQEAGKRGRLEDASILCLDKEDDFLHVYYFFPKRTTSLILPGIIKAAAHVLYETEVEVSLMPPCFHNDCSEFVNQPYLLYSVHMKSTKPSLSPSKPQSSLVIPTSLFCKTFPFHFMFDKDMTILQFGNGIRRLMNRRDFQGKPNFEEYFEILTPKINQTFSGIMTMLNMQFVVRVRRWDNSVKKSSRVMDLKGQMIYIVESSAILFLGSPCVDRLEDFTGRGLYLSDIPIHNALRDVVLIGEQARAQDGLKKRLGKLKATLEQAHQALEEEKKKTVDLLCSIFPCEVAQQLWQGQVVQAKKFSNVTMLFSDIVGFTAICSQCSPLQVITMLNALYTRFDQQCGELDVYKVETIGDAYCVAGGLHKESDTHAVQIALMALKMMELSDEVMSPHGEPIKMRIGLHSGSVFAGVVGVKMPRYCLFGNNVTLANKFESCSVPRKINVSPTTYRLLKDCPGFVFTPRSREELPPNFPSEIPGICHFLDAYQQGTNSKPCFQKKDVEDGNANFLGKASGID
Sequence of human soluble guanylate cyclase alpha 1 and beta 1 subunits (sGC) (Q02153 whole entry): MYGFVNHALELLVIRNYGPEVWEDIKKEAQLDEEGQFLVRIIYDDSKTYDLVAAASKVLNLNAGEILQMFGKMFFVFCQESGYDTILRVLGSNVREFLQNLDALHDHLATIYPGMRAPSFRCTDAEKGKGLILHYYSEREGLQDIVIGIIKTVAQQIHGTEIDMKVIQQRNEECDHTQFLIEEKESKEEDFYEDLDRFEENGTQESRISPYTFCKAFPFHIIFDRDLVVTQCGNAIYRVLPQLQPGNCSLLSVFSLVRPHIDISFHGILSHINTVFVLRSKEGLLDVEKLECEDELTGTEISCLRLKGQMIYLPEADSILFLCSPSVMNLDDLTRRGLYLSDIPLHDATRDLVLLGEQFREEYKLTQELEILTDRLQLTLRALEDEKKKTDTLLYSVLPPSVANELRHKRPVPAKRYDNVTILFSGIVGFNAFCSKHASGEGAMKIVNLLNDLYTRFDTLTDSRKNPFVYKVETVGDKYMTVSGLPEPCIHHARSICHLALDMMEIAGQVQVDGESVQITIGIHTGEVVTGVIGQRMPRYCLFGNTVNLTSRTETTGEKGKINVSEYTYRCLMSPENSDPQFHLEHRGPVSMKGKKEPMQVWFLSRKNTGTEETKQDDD
Protocol: The sGC cellular activator assay is performed in the presence and absence of 50% human serum (HS) using Chinese hamster ovary cells that have been stably transfected to express the human soluble guanylate cyclase alpha 1 and beta 1 subunits (sGC). Cells are preincubated with 40 microM 1H-[1,2,4]oxadiazolo[4,3-a]quinoxalin-1-one (ODQ), an sGC inhibitor, for one h in buffer containing 0.1% bovine serum albumin and 3-isobutyl-1-methylxanthine (IBMX). Concentration response curves are prepared for test compounds in DMSO. An intermediate dilution of the compounds is performed in either buffer containing IBMX or type AB HS containing IBMX. Diluted compounds are added to cells and they are incubated at room temperature for thirty min. cGMP is measured using a CisBio homogeneous time resolved fluorescence kit and the EC50 is calculated for each compound.
Representative compounds of the present invention were tested for activity the above assay. Preferred compounds have an EC50 of <1,000 nM in the above assay and more preferred compounds have an EC50<200 nM.

[2] = Human liver microsome (HLM) metabolic stability assay; assay type: in vitro ADME; settings: human liver microsomes
Protocol: The 5 time point, high-throughput human liver microsome (HLM) metabolic stability assay is designed to determine in vitro compound metabolism. Compounds are incubated with HLMs at a concentration of 1 uM, at 37° C., for a total of 60 min. The percent of compound remaining at 5, 15, 30, and 60 min is used to calculate the t1/2 (min), CLint (mL/min/kg), CLh (mL/min/kg), and % Qh. The assay is based on a 96-well format and can accommodate up to 92 compounds per plate (n=1).
Using the 96-well multi-channel head, the Biomek FX, equipped with a Peltier heating block/shaker, is programmed to accomplish the following steps: • 1. Pipette 175 uL of 1.15 mg/mL microsomes into each of the 96 conical inserts (Analytical Sales and Products, catalog number 96PL05) that fit into the plate of the Peltier heating block/shaker (the incubation plate) • 2. Add 5 uL of compounds from the assay plate to the microsomes and shake the mixture at 600 rpm at 42.1° C. for 10 min (a setting of 42.1° C. on the Peltier is required for the samples to incubate at 37° C.) • 3. After 10 min, prompt the user to add the NADPH plate to the deck and add 20 uL from the NADPH plate to the incubation plate to start the reaction • 4. Add 215 uL of 100%, cold acetonitrile containing an internal standard(s) to a 0 minute, 5 minute, 15 minute, 30 minute, and 60 minute “quench” plate • 5. At 0 min, 5 min, 15 min, 30 min, and 60 min into the incubation, aspirate 12 uL from the incubation mixture and add it to the quench solution to stop the reaction • 6. Add 185 uL HPLC grade water to each well of the 0, 5, 15, 30 and 60 minute quench plates to dilute compounds to the appropriate concentration for the mass spectrometer
After all time points are collected, the quench plates are sealed with 96-well pierceable plate mats or heat sealing foil and centrifuged at 3000 rpm for 15 min to pellet the microsomes.
The plates are analyzed using LC/MS/MS with electron spray ionization (ESI) and the previously determined MRM transitions. The LC method includes the following parameters:
Using an Excel template in Activitybase, the peak areas corresponding to 5, 15, 30 and 60 min are compared to the peak area at 0 min to calculate the percent of remaining compound using the following equation:
Percent compound remaining=(AUC at Time t min/AUC at Time 0 min)×100 where t=0, 5, 15, 30 or 60 min.
Time (min) is plotted against the natural logarithm (Ln) of the percent compound remaining to determine the slope. The slope is used to calculate t1/2 (min) using the equation, t1/2=0.693/slope.
Clh, Hepatic clearance • Hepatic flow*f(u)*Clint/(hepatic flow+f(u)*Clint)
Qh, % Hepatic blood flow • (Clh/Hepatic flow)*100
Preferred compounds have % Qh values of less than 24.

[3] = pH 2.2, aqueous buffer, Solubility (pH 2.2)
[4] = pH 4.5, aqueous buffer, Solubility (pH 4.5)
[5] = pH 6.8, aqueous buffer, Solubility (pH 6.8)

Row | SMILES | solubility at 24 h (physchem; [3]) [mg/mL] | solubility at 24 h (physchem; [4]) [mg/mL] | solubility at 24 h (physchem; [5]) [mg/mL] | EC50 [1] [µM] | Metabolic stability (Qh %), % hepatic blood flow [2] [%]
1 | CO[C@H]1CN(c2nc(-c3cccc(C)c3OCc3ccc4c(c3C)CCN(C3CCOCC3)C4)cs2)CC[C@H]1C(=O)O [Compound 165] | 0.12 (≈ 203 µM) | 0.086 (≈ 145 µM) | 0.077 (≈ 130 µM) | 0.012 | <24
2 | O=C(O)[C@@]12CCN(c3cccc(-c4ccccc4OCc4ccc5c(c4)CCN(C4CCOCC4)C5)n3)C[C@@H]1C2 [Compound 1, (1R,6S)-3-(6-{2-[2-(Tetrahydro-pyran-4-yl)-1,2,3,4-tetrahydro-isoquinolin-6-ylmethoxy]-phenyl}-pyridin-2-yl)-3-aza-bicyclo[4.1.0]heptane-6-carboxylic acid] | 0.14 (≈ 259 µM) | 0.12 (≈ 222 µM) | 0.057 (≈ 106 µM) | 0.007 | <24
3 | CCO[C@@H]1CN(c2cccc(-c3cccc(C)c3OCc3cc4c(c(OC)c3)CN(C3CCOCC3)CC4)n2)CC[C@@H]1C(=O)O [Compound 230] | 0.131 (≈ 213 µM) | 0.128 (≈ 209 µM) | 0.12 (≈ 194 µM) | 0.006 | 83
4 | Cc1cccc(-c2csc(N3CC[C@@]4(C(=O)O)C[C@H]4C3)n2)c1OCc1ccc2c(c1C)CCN(CC1COCCO1)C2 (stereo partly drawn) [Compound 86] | 0.12 (≈ 203 µM) | 0.071 (≈ 120 µM) | 0.057 (≈ 96.6 µM) | 0.002 | 41
5 | CO[C@H]1CN(c2cccc(-c3cccc(Cl)c3OCc3cc(C)c4c(c3)CCN(C3CCOCC3)C4)n2)CC[C@H]1C(=O)O [Compound 250] | 0.147 (≈ 243 µM) | 0.0822 (≈ 136 µM) | 0.0519 (≈ 85.6 µM) | 0.007 | 33
6 | CO[C@H]1CN(c2nc(-c3cc(C)ccc3OCc3ccc4c(c3C)CCN(C[C@H]3CCOC3)C4)cs2)CC[C@H]1C(=O)O [Compound 179] |  |  |  | 0.017 | 
7 | CO[C@H]1CN(c2cccc(-c3cccc(C)c3OCc3cc(C)c4c(c3)CCN(C3CCOCC3)C4)n2)CC[C@@H]1C(=O)O [Compound 298] | 0.131 (≈ 224 µM) | 0.0981 (≈ 167 µM) | 0.0801 (≈ 137 µM) | 0.578 | 34
8 | COC[C@H]1N(c2nccc(-c3cccc(C)c3OCc3cc(C)c4c(c3)CCN(C3CCOCC3)C4)n2)CC2C[C@@]21C(=O)O (stereo partly drawn) [Compound 237] | 0.156 (≈ 260 µM) | 0.136 (≈ 227 µM) | 0.143 (≈ 238 µM) | 0.042 | <24
9 | CO[C@@H]1CN(c2cccc(-c3cccc(C)c3OCc3ccc4c(c3C)CCN(C3CCOCC3)CC4)n2)CC[C@H]1C(=O)O [Compound 297] | 0.134 (≈ 224 µM) | 0.0937 (≈ 156 µM) | 0.0773 (≈ 129 µM) | 0.15 | <24
10 | COc1cc(COc2ccc(C)cc2-c2csc(N3CC[C@@H](C(=O)O)[C@@H](OC)C3)n2)c(F)c2c1CN(C1CCOCC1)CC2 [Compound 271] | 0.134 (≈ 214 µM) | 0.0666 (≈ 106 µM) | 0.0328 (≈ 52.4 µM) | 0.005 | <24
11 | CCO[C@@H]1CN(c2nc(-c3cc(C)ccc3OCc3cc4c(c(OC)c3)CN(C3CCOCC3)CC4)cs2)CC[C@@H]1C(=O)O [Compound 229] | 0.122 (≈ 196 µM) | 0.116 (≈ 187 µM) | 0.115 (≈ 184 µM) | 0.004 | <24
12 | COCC(C)N1CCc2c(ccc(COc3ccccc3-c3cccc(N4CC[C@@]5(C(=O)O)C[C@H]5C4)n3)c2C)C1 (stereo partly drawn) [Compound 310] | 0.093 (≈ 172 µM) | 0.0737 (≈ 136 µM) | 0.0052 (≈ 9.6 µM) | 0.005 | 
13 | CCO[C@H]1CN(c2nccc(-c3cccc(C)c3OCc3cc(C)c4c(c3)CCN(C3CCOCC3)C4)n2)CC[C@H]1C(=O)O [Compound 245] |  |  |  | 0.023 | <24
14 | Cc1ccc(OCc2ccc3c(c2)CCN(C2CCOCC2)C3)c(-c2csc(N3C[C@H]4CC[C@@H](C3)[C@H]4C(=O)O)n2)c1 [Compound 184] |  |  |  | 0.068 | 
15 | Cc1csc(CN2CCc3c(ccc(COc4ccccc4-c4cccc(N5CC[C@@]6(C(=O)O)C[C@H]6C5)n4)c3C)C2)n1 [Compound 304] | 0.157 (≈ 270 µM) | 0.154 (≈ 265 µM) | 0.146 (≈ 251 µM) |  | 48
16 | Cc1ccc(OCc2ccc3c(c2)CCN(C2CCOCC2)C3=O)c(-c2cccc(N3CC[C@@]4(C(=O)O)C[C@H]4C3)n2)c1 [Compound 193] |  |  |  | 0.022 | 52
17 | CO[C@H]1CN(c2nc(-c3cccc(C)c3OCc3cc(C)c4c(c3)CCN(C3CCOCC3)CC4)cs2)CC[C@H]1C(=O)O [Compound 295] | 0.109 (≈ 180 µM) | 0.0805 (≈ 133 µM) | 0.0792 (≈ 131 µM) |  | <24
18 | CCO[C@@H]1CN(c2nccc(-c3cccc(C)c3OCc3cc(C)c4c(c3)CCN(C3CCOCC3)C4)n2)CC[C@@H]1C(=O)O [Compound 247] |  |  |  | 0.659 | <24
19 | CO[C@H]1CN(c2nc(-c3cccc(Cl)c3OCc3ccc4c(c3)CCN(C3CCOCC3)C[C@H]4C)cs2)CC[C@H]1C(=O)O [Compound 333] | 0.109 (≈ 173 µM) | 0.0683 (≈ 109 µM) | 0.0667 (≈ 107 µM) | 0.01 | 
20 | CO[C@H]1CN(c2nc(-c3cccc(C)c3OCc3cc(C)c4c(c3)CCN(C3COC3)CC4)cs2)CC[C@H]1C(=O)O [Compound 294] | 0.108 (≈ 187 µM) | 0.0777 (≈ 134 µM) | 0.0779 (≈ 135 µM) |  | <24
21 | Cc1cccc(-c2cccc(N3CC[C@@H](C(=O)O)[C@H]4OCCC[C@@H]43)n2)c1OCc1ccc2c(c1C)CCN(C1CCOCC1)CC2 [Compound 335] |  |  |  | 0.08 | 
22 | Cc1ccc(OCc2ccc3c(c2)CCN(C2CCC(F)(F)CC2)C3)c(-c2csc(N3C[C@H]4CC[C@@H](C3)[C@H]4C(=O)O)n2)c1 [Compound 183] |  |  |  | 0.08 | 42
